From patent US20060258755A1, “Preparation of sevoflurane with negligible water content” (priority 2005, published 2006)

Assays:
Assay type in all cases: physicochemical
[1] = Storage stability of sevoflurane in Type III glass bottle (gas chromatography, Karl Fischer)
Protocol: In one experiment initiated in August 2000, sevoflurane (Abbott Laboratories, Lot #61-339-DK, Expiration Date Aug. 1, 2001) was dried to 0 ppm water content using Type 3A molecular sieve. Drying was performed by mixing the sevoflurane with molecular sieves and then allowing these materials to stand together for several hours. The water content was determined by Karl Fischer analysis. A sample of the dried sevoflurane was placed in a new amber Type III glass bottle, which had been dried at 100° C. for 2 hours. The bottle was sealed with a black phenolic/urea resin cap and a polyseal liner of polyethylene resin and shrink-wrapped or wrapped with Teflon® tape and shrink-wrapped. The sample was then held at room temperature (25-27° C.) and at ambient relative humidity. […] One undried lot of sevoflurane from Abbott Laboratories (Lot #0 335 70 K, Expiration Date Apr. 1, 1997, stored in a Type III bottle) was analyzed in May and October 2000. This sevoflurane was 97 ppm H2O and 99.9916% sevoflurane by gas chromatography.

[2] = Storage stability of sevoflurane stored with Type 3A molecular sieve in Type III glass
Description: Another sample of sevoflurane (40 g) was stored with 2 g of Type 3A molecular sieve (an alumino silicate that contains Al2O3, identified as a Lewis acid in the '176 patent) in July 2000. This sample was in a new Type III glass container for six months at ambient temperatures.
Starting in July 2000, 40 g of sevoflurane (Abbott Laboratories Lot # 35-621 -DK-03) was stored in the presence of 2 g of Type 3A molecular sieve for 20 months in a dried, new Type III amber glass bottle at room temperature. The initial water content was 218 ppm and was essentially zero after 16 hours of contact with the molecular sieve (as determined by Karl Fischer, a method known to those skilled in the art with a detection limit of about 1 ppm or less).
Starting in July 2000, a sample of sevoflurane (from the lot described in Example 1) was held at room temperature (25-27° C.) over Type 3A molecular sieve for two-and-a-half months in a dried, new Type III amber glass bottle.

[3] = Water saturation limit of sevoflurane; details: second sample of Example 4 (28 g)
Protocol: Currently available processes for the preparation of sevoflurane generally give a product containing dissolved water up to 0.12 to 0.14 wt %, or 1200 to 1400 ppm, the approximate water saturation limit of sevoflurane. […] This sample was sealed in September 2000 in a new Type III glass bottle as previously described and stored at 40° C. for four weeks.

[4] = Storage stability of sevoflurane in the presence of iron oxide (Fe2O3, a Lewis acid)
Protocol: A sample of sevoflurane containing 30 ppm of water and 0.05 g Fe2O3 (iron oxide) was placed in a new Type III amber glass bottle in July 2000 and sealed as previously described. […] This sample was sealed in September 2000 in a new Type III glass bottle as previously described and stored at 40° C. for four weeks.

[5] = Stability trial of sevoflurane dried over Type 3A molecular sieve, packaged in glass bottles or epoxy-lined drums; details: for decomposition / % sevoflurane by gas chromatography: dried to 0 ppm water, 30 days at 40° C. and 75% relative humidity; for % sevoflurane by gas chromatography: initial 99.99%
Protocol: (§1) Sevoflurane (99.99%, produced January 2005) was dried over Type 3A molecular sieve using a continuous flow bed apparatus to a water-composition of 0.0 wt % (or 0 ppm) as measured by Karl Fischer. 100 ml of sevoflurane was packaged into a Type III amber glass bottle and sealed for a 30-day stability trial at 40° C. and 75% relative humidity. At the end of this time, the sevoflurane was 99.99% as determined by gas chromatography.
as §1, with “water composition” for “water-composition”, “250” for “100”
Sevoflurane (99.99%, produced January 2005) was dried over Type 3A molecular sieve using a continuous flow bed apparatus to a water composition of 0.0 wt % (or 0 ppm) as measured by Karl Fischer. 28.1 kg of sevoflurane was packaged in a five-gallon epoxy-lined drum and sealed for a 30-day stability trial at 40° C. and 75% relative humidity. At the end of this time, the % sevoflurane was 99.99% as determined by gas chromatography.
Purified Sevoflurane was dried over Type 3A molecular sieve using a continuous flow bed apparatus to negligible or near-negligible water compositions as measured by Karl Fischer. The dried material was packaged into 100 mL or 250 mL Type III amber glass bottles or into 5 gal epoxy-lined drums and subsequently stored as part of a stability trial under controlled or ambient conditions.
The sevoflurane used in examples 8-11 was produced by the method described in pending U.S. patent application Ser. No. 11/281,293, filed Nov. 17, 2005, the disclosure of which is incorporated herein by reference.

[6] = undried Abbott Lot #0 335 70 K, 97 ppm H2O, Type III bottle, ambient temperature for about five years
[7] = 40 g with 2 g Type 3A molecular sieve, new Type III glass container, six months at ambient temperatures
[8] = lot of Example 1 over Type 3A molecular sieve, dried, new Type III amber glass bottle, room temperature (25-27° C.), two-and-a-half months
[9] = 28 g saturated with water (1235 ppm), 0.07 g Fe2O3, new Type III glass bottle, 40° C. for four weeks
[10] = 30 ppm water, 0.05 g Fe2O3, new Type III amber glass bottle, four weeks at 40° C.
[11] = 5 gal epoxy-lined drum, Mfg. April 2005, initial water 6 ppm, 60 days, 40 C./75% RH
[12] = 5 gal epoxy-lined drum, Mfg. April 2005, initial water 10 ppm, 9 months, Ambient
[13] = 5 gal epoxy-lined drum, Mfg. February 2005, initial water 0 ppm, 12 months, 40 C./75% RH
[14] = 5 gal epoxy-lined drum, Mfg. February 2005, initial water 0 ppm, 12 months, Ambient
[15] = 5 gal epoxy-lined drum, Mfg. January 2005, initial water 0 ppm, 6 months, 40 C./75% RH
[16] = 5 gal epoxy-lined drum, Mfg. January 2005, initial water 0 ppm, 90 days, Ambient
[17] = 100 mL Type III amber glass bottle, Mfg. February 2005, initial water 0 ppm, 9 months, 25 C./60% RH
[18] = 100 mL Type III amber glass bottle, Mfg. February 2005, initial water 0 ppm, 60 days, 40 C./75% RH
[19] = 250 mL Type III amber glass bottle, Mfg. April 2005, initial water 5 ppm, 6 months, 25 C./60% RH
[20] = 250 mL Type III amber glass bottle, Mfg. April 2005, initial water 5 ppm, 90 days, 40 C./75% RH
[21] = 250 mL Type III amber glass bottle, Mfg. February 2005, initial water 0 ppm, 9 months, 25 C./60% RH
[22] = 250 mL Type III amber glass bottle, Mfg. February 2005, initial water 0 ppm, 60 days, 40 C./75% RH
[23] = 250 mL Type III amber glass bottle, Mfg. January 2005, initial water 0 ppm, 12 months, 25 C./60% RH
[24] = 28.1 kg in five-gallon epoxy-lined drum
[25] = 100 ml in Type III amber glass bottle
[26] = 250 ml in Type III amber glass bottle

Question: Which “% sevoflurane by gas chromatography” value ([1]; Abbott Lot #61-339-DK dried to 0 ppm water with Type 3A molecular sieve, new amber Type III glass bottle, room temperature (25-27° C.), ambient relative humidity, four weeks) does the source give for FCOC(C(F)(F)F)C(F)(F)F [sevoflurane, 1,1,1,3,3,3-hexafluoroisopropyl fluoromethyl ether] here?
Answer: 99.998%

Question: And the “water (Karl Fischer analysis) at end of stability run” value ([1]; Abbott Lot #61-339-DK dried to 0 ppm water, new amber Type III glass bottle, room temperature (25-27° C.), ambient relative humidity, four weeks)?
Answer: 68 ppm

Question: And the decomposition ([1]; Abbott Lot #61-339-DK dried to 0 ppm water, new amber Type III glass bottle, room temperature (25-27° C.), four weeks)?
Answer: no decomposition

Question: What about the “% sevoflurane by gas chromatography” value [1, 6] of the same compound?
Answer: 99.9916%

Question: And the decomposition [1, 6]?
Answer: without decomposition

Question: What about the decomposition ([2]; 40 g Abbott Lot # 35-621 -DK-03 with 2 g Type 3A molecular sieve, dried, new Type III amber glass bottle, room temperature, 20 months) of the same compound?
Answer: no evidence of any decomposition

Question: What about the “% sevoflurane by gas chromatography” value ([2]; 40 g Abbott Lot # 35-621 -DK-03 with 2 g Type 3A molecular sieve, dried, new Type III amber glass bottle, room temperature, 20 months, initial water 218 ppm, essentially zero after 16 hours) of the same compound?
Answer: 99.997%

Question: And the “% sevoflurane by gas chromatography” value [2, 7]?
Answer: greater than 99.99%

Question: And the decomposition [2, 7]?
Answer: No decomposition

Question: And the “% sevoflurane by gas chromatography” value [2, 8]?
Answer: greater than 99.99%

Question: What about the decomposition [2, 8] of the same compound?
Answer: no decomposition

Question: And the “water content of sevoflurane saturated with water” value [3]?
Answer: 1235 ppm

Question: What about the decomposition [4, 9] of the same compound?
Answer: no decomposition

Question: What about the “purity by gas chromatography” value [4, 9] of the same compound?
Answer: 99.97%

Question: And the “% (CF3)2CHOCH2OCH(CF3)2 decomposition product by gas chromatographic analyses” value [4, 10]?
Answer: 6.33%

Question: What about the “% (CF3)2CHOH decomposition product by gas chromatographic analyses” value [4, 10] of the same compound?
Answer: 0.49%

Question: What about the “% sevoflurane by gas chromatographic analyses” value [4, 10] of the same compound?
Answer: 90.7%

Question: What about the “Final Comp.” value [5, 11] of the same compound?
Answer: 99.998%

Question: What about the “Result (decomposition)” value [5, 11] of the same compound?
Answer: No

Question: And the “Final Comp.” value [5, 12]?
Answer: 99.998%

Question: What about the “Result (decomposition)” value [5, 12] of the same compound?
Answer: No

Question: And the “Final Comp.” value [5, 13]?
Answer: 99.98%

Question: And the “Result (decomposition)” value [5, 13]?
Answer: No

Question: What about the “Final Comp.” value [5, 14] of the same compound?
Answer: 99.98%

Question: What about the “Result (decomposition)” value [5, 14] of the same compound?
Answer: No

Question: What about the “Final Comp.” value [5, 15] of the same compound?
Answer: 99.98%

Question: And the “Result (decomposition)” value [5, 15]?
Answer: No

Question: And the “Final Comp.” value [5, 16]?
Answer: 99.99%

Question: What about the “Result (decomposition)” value [5, 16] of the same compound?
Answer: No

Question: What about the “Final Comp.” value [5, 17] of the same compound?
Answer: 99.98%

Question: What about the “Result (decomposition)” value [5, 17] of the same compound?
Answer: No

Question: What about the “Final Comp.” value [5, 18] of the same compound?
Answer: 99.99%

Question: What about the “Result (decomposition)” value [5, 18] of the same compound?
Answer: No

Question: What about the “Final Comp.” value [5, 19] of the same compound?
Answer: 99.997%

Question: And the “Result (decomposition)” value [5, 19]?
Answer: No

Question: And the “Final Comp.” value [5, 20]?
Answer: 99.997%

Question: What about the “Result (decomposition)” value [5, 20] of the same compound?
Answer: No

Question: And the “Final Comp.” value [5, 21]?
Answer: 99.98%

Question: What about the “Result (decomposition)” value [5, 21] of the same compound?
Answer: No

Question: And the “Final Comp.” value [5, 22]?
Answer: 99.98%

Question: What about the “Result (decomposition)” value [5, 22] of the same compound?
Answer: No

Question: And the “Final Comp.” value [5, 23]?
Answer: 99.99%

Question: What about the “Result (decomposition)” value [5, 23] of the same compound?
Answer: No

Question: And the decomposition [5, 24]?
Answer: no decomposition

Question: And the “% sevoflurane by gas chromatography” value [5, 24]?
Answer: 99.99%

Question: What about the decomposition [5, 25] of the same compound?
Answer: no decomposition

Question: And the “% sevoflurane by gas chromatography” value [5, 25]?
Answer: 99.99%

Question: What about the decomposition [5, 26] of the same compound?
Answer: no decomposition

Question: And the “% sevoflurane by gas chromatography” value [5, 26]?
Answer: 99.99%
